In patent US20250081967A1, “PESTICIDALLY ACTIVE HETEROCYCLIC DERIVATIVES WITH SULFOXIMINE CONTAINING SUBSTITUENTS” (SYNGENTA CROP PROTECTION AG, priority 2021, published 2025):

Legend:
Format in all cases: in vivo
Chilo suppressalis = assay: Activity against Chilo suppressalis (striped rice stemborer), artificial diet; conditions: 144 h, application rate 200 ppm, L2 larvae, 6 days after infestation
Method: Example B11: Activity Against Chilo suppressalis (Striped Rice Stemborer)
24-well microtiter plates with artificial diet were treated with aqueous test solutions prepared from 10′000 ppm DMSO stock solutions by pipetting. After drying, the plates were infested with L2 larvae (6-8 per well). The samples were assessed for mortality, anti-feeding effect, and growth inhibition in comparison to untreated samples 6 days after infestation. Control of Chilo suppressalis by a test sample is given when at least one of the categories mortality, anti-feedant effect, and growth inhibition is higher than the untreated sample.

Bemisia tabaci = assay: Activity against Bemisia tabaci (cotton white fly), cotton leaf discs; conditions: for mortality at 200 ppm: foliar, 144 h, application rate 200 ppm, adult white flies, 6 days after incubation; for Mortality (%): concentration 12.5 ppm
Method: Example B6: Activity Against Bemisia tabaci (Cotton White Fly)
Cotton leaf discs were placed on agar in 24-well microtiter plates and sprayed with aqueous test solutions prepared from 10′000 ppm DMSO stock solutions. After drying the leaf discs were infested with adult white flies. The samples were checked for mortality 6 days after incubation.

Myzus persicae [1] = assay: Activity against Myzus persicae (green peach aphid), feeding/contact activity, sunflower leaf discs; conditions: for mortality at 200 ppm: Myzus persicae, foliar, 144 h, application rate 200 ppm, feeding/contact, 6 days after infestation; for Mortality (%): Myzus persicae (feeding/contact)
Method: Example B4: Activity Against Myzus persicae (Green Peach Aphid) Feeding/Contact Activity
Sunflower leaf discs were placed on agar in a 24-well microtiter plate and sprayed with aqueous test solutions prepared from 10′000 ppm DMSO stock solutions. After drying, the leaf discs were infested with an aphid population of mixed ages. The samples were assessed for mortality 6 days after infestation.

Myzus persicae [2] = assay: Activity against Myzus persicae (green peach aphid), systemic activity, pea seedlings; conditions: Myzus persicae; for mortality at 24 ppm: 144 h, test rate 24 ppm, systemic, 6 days after placing seedlings in test solutions
Method: Example B5: Activity Against Myzus persicae (Green Peach Aphid) Systemic Activity
Roots of pea seedlings infested with an aphid population of mixed ages were placed directly in the aqueous test solutions prepared from 10′000 DMSO stock solutions. The samples were assessed for mortality 6 days after placing seedlings in test solutions.

Diabrotica balteata = assay: Activity against Diabrotica balteata (corn root worm), maize sprouts; conditions: for percent effect (mortality or growth inhibition) at 200 ppm: 96 h, application rate 200 ppm, L2 larvae, 4 days after infestation, read-out: effect in at least one of the two categories (mortality or growth inhibition)
Method: Example B3: Activity Against Diabrotica Balteata (Corn Root Worm)
Maize sprouts placed onto an agar layer in 24-well microtiter plates were treated with aqueous test solutions prepared from 10′000 ppm DMSO stock solutions by spraying. After drying, the plates were infested with L2 larvae (6 to 10 per well). The samples were assessed for mortality and growth inhibition in comparison to untreated samples 4 days after infestation.

Plutella xylostella [3] = assay: Activity against Plutella xylostella (diamond back moth), artificial diet, eggs; conditions: 192 h, application rate 200 ppm, 8 days after infestation, read-out: effect in at least one of the two categories (mortality or growth inhibition)
How it was run: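 Artificial diet in wells treated with aqueous dilutions of 10′000 ppm DMSO stocks, dried, then infested with Plutella eggs. Mortality and growth inhibition scored against untreated samples 8 days after infestation.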

Euschistus heros = assay: Activity against Euschistus heros (neotropical brown stink bug), soybean leaf; conditions: 120 h, application rate 200 ppm, N-2 nymphs, 5 days after infestation, read-out: effect in at least one of the two categories (mortality or growth inhibition)
Method: Example B7: Activity Against Euschistus heros (Neotropical Brown Stink Bug)
Soybean leaf on agar in 24-well microtiter plates were sprayed with aqueous test solutions prepared from 10′000 ppm DMSO stock solutions. After drying the leaf were infested with N-2 nymphs. The samples were assessed for mortality and growth inhibition in comparison to untreated samples 5 days after infestation.

Plutella xylostella [4] = assay: Activity against Plutella xylostella (diamond back moth), artificial diet, L2 larvae; conditions: 120 h, application rate 200 ppm, 5 days after infestation, read-out: effect in at least one of the two categories (mortality or growth inhibition)
Method: Example B2: Activity Against Plutella xylostella (Diamond Back Moth)
24-well microtiter plates with artificial diet were treated with aqueous test solutions prepared from 10′000 ppm DMSO stock solutions by pipetting. After drying, the plates were infested with L2 larvae (10 to 15 per well). The samples were assessed for mortality and growth inhibition in comparison to untreated samples 5 days after infestation.

Spodoptera littoralis = assay: Activity against Spodoptera littoralis (Egyptian cotton leaf worm), cotton leaf discs; conditions: foliar, 72 h, application rate 200 ppm, L1 larvae, 3 days after infestation, read-out: control (mortality, anti-feeding effect or growth inhibition)
How it was run: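 Cotton leaf discs on agar sprayed with aqueous test solutions made from 10′000 ppm DMSO stocks, dried, then infested with five L1 larvae. Mortality, anti-feeding and growth inhibition scored versus untreated samples 3 days after infestation; control given when any category exceeds untreated.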

SMILES	percent control (mortality, anti-feedant effect or growth inhibition) at 200 ppm (Chilo suppressalis)	mortality at 200 ppm (Bemisia tabaci)	mortality at 200 ppm (Myzus persicae [1])	mortality at 24 ppm (Myzus persicae [2])	percent effect (mortality or growth inhibition) at 200 ppm (Diabrotica balteata)	percent effect (mortality or growth inhibition) at 200 ppm (Euschistus heros)	percent effect (mortality or growth inhibition) at 200 ppm (Plutella xylostella [4])	percent control (mortality, anti-feedant effect or growth inhibition) at 200 ppm (Spodoptera littoralis)	other results
CCS(=N)(=O)c1cc(C2(C#N)CC2)ccc1-c1nc2cc(C(F)(F)F)cnc2n1C (single isomer, unassigned) [Compound P6-A, 1-[3-(ethylsulfonimidoyl)-4-[3-methyl-6-(trifluoromethyl)imidazo[4,5-b]pyridin-2-yl]phenyl]cyclopropanecarbonitrile]	≥ 80%	≥ 80%	≥ 80%	≥ 80%	≥ 80%				mortality at 6 ppm (Myzus persicae [2]; Myzus persicae (systemic), concentration 6 ppm): 80%; mortality at 50 ppm (Diabrotica balteata; concentration 50 ppm): 80%
CCS(=N)(=O)c1cc(C(C)(C)C#N)cnc1-c1nc2cc(C(F)(F)F)cnc2n1C (single isomer, unassigned) [Compound P12-B, 2-[5-(ethylsulfonimidoyl)-6-[3-methyl-6-(trifluoromethyl)imidazo[4,5-b]pyridin-2-yl]-3-pyridyl]-2-methyl-propanenitrile]	≥ 80%								
CCS(=N)(=O)c1cc(C2(C#N)CC2)cnc1-c1nc2cc(C(F)(F)F)ncc2n1C (single isomer, unassigned) [Compound P10-B, 1-[5-(ethylsulfonimidoyl)-6-[3-methyl-6-(trifluoromethyl)imidazo[4,5-c]pyridin-2-yl]-3-pyridyl]cyclopropanecarbonitrile]	≥ 80%								Mortality (%) (Bemisia tabaci): 100%; Mortality (%) (Myzus persicae [1]; concentration 0.781 ppm): 80%
CCS(=N)(=O)c1cc(C2(C#N)CC2)cnc1-c1nc2cc(C(F)(F)F)n(OC)c(=O)c2n1C (single isomer, unassigned) [Compound P8-B, 1-[5-(ethylsulfonimidoyl)-6-[5-methoxy-3-methyl-4-oxo-6-(trifluoromethyl)imidazo[4,5-c]pyridin-2-yl]-3-pyridyl]cyclopropanecarbonitrile]	≥ 80%								percent effect (mortality or growth inhibition) at 200 ppm (Plutella xylostella [3]): ≥ 80%
CCn1c(C(F)(F)F)cc2nc(-c3ncc(OC(C)(C)C#N)cc3S(=N)(=O)CC)n(C)c2c1=O (racemic) [Compound P19, 2-[[6-[5-ethyl-3-methyl-4-oxo-6-(trifluoromethyl)imidazo[4,5-c]pyridin-2-yl]-5-(ethylsulfonimidoyl)-3-pyridyl]oxy]-2-methyl-propanenitrile]		≥ 80%	≥ 80%	≥ 80%	≥ 80%	≥ 80%	≥ 80%	≥ 80%	
CCS(=N)(=O)c1cc(OC(C)(C)C#N)cnc1-c1nc2cc(C(F)(F)F)cnc2n1C (racemic) [Compound P9, 2-[[5-(ethylsulfonimidoyl)-6-[3-methyl-6-(trifluoromethyl)imidazo[4,5-b]pyridin-2-yl]-3-pyridyl]oxy]-2-methyl-propanenitrile]		≥ 80%	≥ 80%	≥ 80%	≥ 80%	≥ 80%	≥ 80%	≥ 80%	
CCn1c(C(F)(F)F)cc2nc(-c3ncc(C4(C#N)CC4)cc3S(=N)(=O)CC)n(C)c2c1=O (racemic) [Compound P14, 1-[6-[5-ethyl-3-methyl-4-oxo-6-(trifluoromethyl)imidazo[4,5-c]pyridin-2-yl]-5-(ethylsulfonimidoyl)-3-pyridyl]cyclopropanecarbonitrile]		≥ 80%	≥ 80%	≥ 80%	≥ 80%	≥ 80%	≥ 80%	≥ 80%	
CCn1c(C(F)(F)F)cc2nc(-c3ncc(C4(C#N)CC4)cc3S(=N)(=O)CC)n(C)c2c1=O (single isomer, unassigned) [Compound P14-B, 1-[6-[5-ethyl-3-methyl-4-oxo-6-(trifluoromethyl)imidazo[4,5-c]pyridin-2-yl]-5-(ethylsulfonimidoyl)-3-pyridyl]cyclopropanecarbonitrile]	≥ 80%								Mortality (%) (Diabrotica balteata; concentration 50 ppm): 50%
CCS(=N)(=O)c1cc(OC(C)(C)C#N)cnc1-c1nc2cc(C(F)(F)F)ncc2n1C (single isomer, unassigned) [Compound P13-B, 2-[[5-(ethylsulfonimidoyl)-6-[3-methyl-6-(trifluoromethyl)imidazo[4,5-c]pyridin-2-yl]-3-pyridyl]oxy]-2-methyl-propanenitrile]	≥ 80%							≥ 80%	Mortality (%) (Myzus persicae [1]; concentration 12.5 ppm): 100%; Mortality (%) (Diabrotica balteata; concentration 50 ppm): 100%
CCS(=N)(=O)c1cc(OC(C)(C)C#N)c(C)nc1-c1nc2cc(C(F)(F)F)cnc2n1C (racemic) [Compound P5, 2-[[5-(ethylsulfonimidoyl)-2-methyl-6-[3-methyl-6-(trifluoromethyl)imidazo[4,5-b]pyridin-2-yl]-3-pyridyl]oxy]-2-methyl-propanenitrile]		≥ 80%	≥ 80%	≥ 80%	≥ 80%	≥ 80%	≥ 80%	≥ 80%	
CCS(=N)(=O)c1cc(C2(C#N)CC2)cnc1-c1nc2cc(C(F)(F)F)cnc2n1C (single isomer, unassigned) [Compound P16-B, 1-[5-(ethylsulfonimidoyl)-6-[3-methyl-6-(trifluoromethyl)imidazo[4,5-b]pyridin-2-yl]-3-pyridyl]cyclopropanecarbonitrile]	≥ 80%							≥ 80%	Mortality (%) (Bemisia tabaci): 80%; Mortality (%) (Myzus persicae [1]; concentration 3.125 ppm): 100%
CCS(=N)(=O)c1cc(C2(C#N)CC2)cnc1-c1nc2cc(C(F)(F)F)nnc2n1C (single isomer, unassigned) [Compound P2-A, 1-[5-(ethylsulfonimidoyl)-6-[7-methyl-3-(trifluoromethyl)imidazo[4,5-c]pyridazin-6-yl]-3-pyridyl]cyclopropanecarbonitrile]	≥ 80%	≥ 80%	≥ 80%	≥ 80%					Mortality (%) (Myzus persicae [1]; concentration 3.125 ppm): 100%
CCS(=N)(=O)c1cc(C2(C#N)CC2)cnc1-c1nc2cc(C(F)(F)F)n(OC)c(=O)c2n1C (racemic) [Compound P8, 1-[5-(ethylsulfonimidoyl)-6-[5-methoxy-3-methyl-4-oxo-6-(trifluoromethyl)imidazo[4,5-c]pyridin-2-yl]-3-pyridyl]cyclopropanecarbonitrile]		≥ 80%	≥ 80%	≥ 80%	≥ 80%	≥ 80%	≥ 80%	≥ 80%	
